Measured values as given in US12507703B2, “Methods, devices and compositions for preserving human milk” (The Trustees of Princeton University, priority 2023, dated 2025).
Where “and” joins values, the source holds several entries; their conditions need not be identical. Equal entries are not always repeated. Where a SMILES comes first, the peptide text is derived from it.

Tested on: lipase
Assay: Lipase/lipolysis assay (EnzChek Lipase Substrate, quenched BODIPY-fatty acid conjugate) on stored human milk; note: test concentration or dose not given here

Molecule	Lipase (RFU)
Nc1ncnc2c1ncn2[C@@H]1O[C@H](COP(=O)(O)OP(=O)([O-])OP(=O)([O-])O)[C@@H](O)[C@H]1O.O.[Na+].[Na+] [ATP (disodium salt hydrate)]	750.5023 RFU
C[C@]12CC[C@H]3[C@@H](CCC4=CC(=O)CC[C@@]43C)[C@@H]1CC[C@@H]2C(=O)CO [Deoxycorticosterone]	992.8813 RFU
C[C@H](CCC(=O)O)[C@H]1CC[C@H]2[C@@H]3[C@H](O)C[C@@H]4C[C@H](O)CC[C@]4(C)[C@H]3C[C@H](O)[C@]12C [Cholic acid (sodium)]	828.0633 RFU and 816.2579 RFU
O=C(/C=C/c1ccc(O)c(O)c1)O[C@@H]1CC(O)(C(=O)O)C[C@@H](OC(=O)/C=C/c2ccc(O)c(O)c2)C1O (stereo partly shown) [Isochlorogenic acid A]	827.6093 RFU
N=C(N)NCCC[C@H](N)C(=O)O [L-Arginine]	753.4686 RFU and 980.9809 RFU and 913.1858 RFU
CC1=C2[C@H]3OC(=O)[C@@H](C)[C@@H]3CC[C@@]2(C)C=CC1=O [Santonin]	895.7689 RFU
CC(C)C12CCC(C)(CC1)O2 [1,4-Cineole]	770.6625 RFU and 1018.049 RFU
COc1ccc(-c2cc(=O)c3c(O)cc(O[C@@H]4O[C@H](CO)[C@@H](O)[C@H](O)[C@H]4O[C@@H]4O[C@@H](C)[C@H](O)[C@@H](O)[C@H]4O)cc3o2)cc1O [Neodiosmin]	928.3945 RFU
C[N+](C)(C)CC(O)CC(=O)[O-] (racemic) [D,L-Carnitine]	1067.602 RFU and 1032.196 RFU
O=C(/C=C/c1ccc(O)c(O)c1)O[C@H](C(=O)O)[C@H](OC(=O)/C=C/c1ccc(O)c(O)c1)C(=O)O [L-Chicoric Acid]	1257.708 RFU
O=P(O)(O)O[C@H]1O[C@H](CO)[C@@H](O)[C@H](O)[C@H]1O [D-Glucose-1-Phosphate]	853.7765 RFU and 929.0604 RFU
CC(C)=CCC[C@](C)(O)[C@H]1CC[C@]2(C)[C@@H]1[C@H](O)C[C@@H]1[C@@]3(C)CC[C@H](O[C@@H]4O[C@H](CO)[C@@H](O)[C@H](O)[C@H]4O[C@@H]4O[C@H](CO)[C@@H](O)[C@H](O)[C@H]4O)C(C)(C)[C@@H]3CC[C@]12C [20(S)-Ginsenoside Rg3]	979.4673 RFU
O=P(O)(O)O[C@H]1O[C@H](CO)[C@@H](O)[C@H](O)[C@@H]1O [D-Mannose-1-Phosphate]	1121.007 RFU
CC(=O)N[C@H]1[C@H](O[C@H]2[C@H](O)[C@@H](NC(C)=O)C(O)O[C@@H]2CO)O[C@H](CO)[C@@H](O[C@@H]2O[C@H](CO)[C@@H](O)[C@H](O)[C@H]2NC(C)=O)[C@@H]1O (stereo partly shown) [N,N′,N″-Triacetylchitotriose]	1143.03 RFU
Cc1ccc(C=O)cc1 [p-Tolualdehyde]	1029.761 RFU
CC1=C(/C=C/C(C)=C/C=C/C(C)=C/C=C/C=C(C)/C=C/C=C(\C)C=O)C(C)(C)CCC1 [β-Apo-8′-carotenal]	958.4764 RFU and 851.8107 RFU
CCCCCCCCCCCCCCCCCO [Compound 1-Heptadecanol, 1-Heptadecanol]	803.2986 RFU
COc1cc2c(=O)c(-c3ccc(O)cc3)coc2cc1O[C@@H]1O[C@H](CO)[C@@H](O)[C@H](O)[C@H]1O [Glycitin]	799.4163 RFU
(−)-Epigallocatechin Gallate	333.087 RFU
O=C1/C(=C2\Nc3ccc(S(=O)(=O)[O-])cc3C2=O)Nc2ccc(S(=O)(=O)[O-])cc21.[Na+].[Na+] [Indigo carmine]	862.5624 RFU
COc1cc([C@H]2OC[C@@H]3C(c4cc(OC)c(O)c(OC)c4)OC[C@H]23)ccc1O (single isomer, unassigned; (+)) [(+)-Medioresinol]	1166.732 RFU

Molecule	Lipase (RFU)
N[C@@H](CNC(=O)C(=O)O)C(=O)O [Dencichine]	1365.261 RFU
O=c1ccc2cc(O)c(O[C@@H]3O[C@H](CO)[C@@H](O)[C@H](O)[C@H]3O)cc2o1 [Cichoriin]	714.076 RFU
NC(=O)[C@@H]1CCCN1C(=O)[C@H](Cc1ccccc1)NC(=O)[C@@H]1CCCN1C(=O)[C@@H](N)Cc1ccc(O)cc1 [Morphiceptin] (H-YPFP-NH2)	1251.045 RFU
O[C@H]1[C@H](O)[C@@H](O)[C@H](O)[C@@H](O)[C@H]1O [i-Inositol]	1026.636 RFU and 1128.491 RFU
C[C@]12CCC(=O)C=C1CC[C@@H]1[C@@H]2C(=O)C[C@]2(C)C(=O)CC[C@@H]12 [Adrenosterone]	757.5347 RFU
Notoginsenoside Fe	902.3283 RFU
CC(=O)N[C@@H](C)C(=O)O [Ac-Ala-OH]	1189.332 RFU
OC[C@H]1O[C@@](CO)(OC[C@@]2(O[C@H]3O[C@H](CO)[C@@H](O)[C@H](O)[C@H]3O)O[C@H](CO)[C@@H](O)[C@@H]2O)[C@@H](O)[C@@H]1O [Compound 1-Kestose]	1115.168 RFU
CC(C)=CCC[C@](C)(O[C@@H]1O[C@H](CO[C@@H]2OC[C@H](O)[C@H](O)[C@H]2O)[C@@H](O)[C@H](O)[C@H]1O)[C@H]1CC[C@]2(C)[C@@H]1[C@H](O)C[C@@H]1[C@@]3(C)CC[C@H](O)C(C)(C)[C@@H]3[C@@H](O)C[C@]12C [Ginsenoside F3]	878.0505 RFU
C[S+](CC[C@H](N)C(=O)[O-])C[C@H]1O[C@@H](n2cnc3c(N)ncnc32)[C@H](O)[C@@H]1O.Cc1ccc(S(=O)(=O)O)cc1.O=S(=O)(O)O.O=S(=O)(O)O (stereo partly shown)	726.0141 RFU
COc1ccc(-c2cc(=O)c3c(O)cc(O[C@@H]4O[C@H](CO[C@@H]5O[C@@H](C)[C@H](O)[C@@H](O)[C@H]5O)[C@@H](O)[C@H](O)[C@H]4O)cc3o2)cc1 [Linarin]	989.9197 RFU
C/C(=C\CC[C@@H](C)[C@H]1CC[C@@]2(C)C3=CC[C@H]4C(C)(C)[C@@H](O)CC[C@]4(C)C3=CC[C@]12C)CO [Ganoderol B]	970.7443 RFU
COc1ccc(C[C@H]2COC(=O)[C@]2(O)Cc2ccc(O[C@@H]3O[C@H](CO)[C@@H](O)[C@H](O)[C@H]3O)c(OC)c2)cc1OC [Tracheloside]	940.7065 RFU
COc1cc(O)c2c(=O)cc(-c3ccccc3)oc2c1 [Tectochrysin]	890.4365 RFU
C=CCc1cc(OC)c2c(c1)OCO2 [Myristicin]	960.4671 RFU
CC[C@H]1OC(=O)C[C@@H](O)[C@H](C)[C@@H](O[C@@H]2O[C@H](C)[C@@H](O[C@H]3C[C@@](C)(O)[C@@H](O)[C@H](C)O3)[C@H](N(C)C)[C@H]2O)[C@@H](CC=O)C[C@@H](C)C(=O)/C=C/C(C)=C/[C@@H]1CO[C@@H]1O[C@H](C)[C@@H](O)[C@@H](OC)[C@H]1OC.O=C(O)C(O)C(O)C(=O)O [Tylosin (tartrate)]	942.0391 RFU
Isoliquiritin apioside	821.8958 RFU
Oc1cc(O)c2cc(O)c(-c3cc(O)c(O)c(O)c3)[o+]c2c1.[Cl-] [Delphinidin (chloride)]	816.1782 RFU
NC(=O)CCCCC1CCSS1 (racemic) [D,L-Lipoamide]	1094.48 RFU
C=C(O[C@@H]1C=C(C(=O)O)C=C[C@H]1O)C(=O)O [Chorismic Acid]	935.6375 RFU
C[n+]1cccc(C(N)=O)c1 [TRIA-662]	1140.39 RFU

Molecule	Lipase (RFU)
O=CO [Formic Acid]	1027.958 RFU
Gluconate (Calcium)	840.1946 RFU
Mannan	1091.353 RFU
Maltohexaose	977.7036 RFU
c1ccc2c(-c3nccs3)c[nH]c2c1 [Camalexin]	1018.047 RFU
CCOC(=O)c1ccc(O)c(OC)c1 [Ethyl Vanillate]	981.4431 RFU
Sorafenib (Tosylate)	986.7553 RFU
CC1C(=O)OC2C(O)C34C5CC(C(C)(C)C)C36C(OC(=O)C6O)OC4(C(=O)O5)C12O (stereo not shown) [Ginkgolide B]	1094.796 RFU
Eicosadienoic acid	795.3404 RFU
CC(C)CCC[C@@H](C)[C@H]1CC[C@H]2C3=CC[C@H]4C[C@@H](O)CC[C@]4(C)[C@H]3CC[C@]12C [Lathosterol]	1017.106 RFU
C=C(CC(=O)O)C(=O)O [Itaconic Acid]	944.0433 RFU
C[C@@H]1O[C@@H](OC[C@H]2O[C@@H](Oc3c(-c4ccc(O)cc4)oc4cc(O)cc(O)c4c3=O)[C@H](O[C@@H]3OC[C@@H](O)[C@H](O)[C@H]3O)[C@@H](O)[C@@H]2O)[C@H](O)[C@H](O)[C@H]1O [Camelliaside B]	927.4235 RFU
O=Cc1ccc[nH]1 [Pyrrole-2-carboxaldehyde]	882.4774 RFU
OC[C@H]1O[C@@](CO)(O[C@H]2O[C@H](CO[C@@H]3O[C@H](CO)[C@@H](O)[C@H](O)[C@H]3O)[C@@H](O)[C@H](O)[C@H]2O)[C@@H](O)[C@@H]1O [Gentianose]	1100.387 RFU
C[C@H]1CCCC(=O)CCC/C=C/c2cc(O)cc(O)c2C(=O)O1 [Zearalenone]	758.7174 RFU
Cl.Cl.NCCc1c[nH]cn1 [Histamine (dihydrochloride)]	1022.007 RFU
COc1cc(CC(=O)O)ccc1O [Homovanillic acid]	934.4466 RFU
O=C1O[C@H]([C@H](O)CO)C([O-])=C1O.[Na+] [Sodium erythorbate]	904.5416 RFU
O=C1c2ccc(O)cc2OCC1c1ccc(O)cc1 (stereo not shown) [Dihydrodaidzein]	682.5875 RFU
